From patent publication US7414041B2 (Trustees Of Tufts College, priority 1991, dated 2008)
pIC50: −log10 of the molar value. Like-named read-outs stand apart in the source and are kept apart here.

Legend:
[1] = test system: E. faecalis 158 (Tet L); experiment: MIC/MLC chart, analog with and without doxycycline; assay type: cell-based
[2] = biological target: T1, TET proteins responsible for tetracycline efflux (Class B tetracycline resistance determinant, strain D1-209) (Escherichia coli, UniProt P02980); experiment: biochemical; parameters: species or system E. coli; conditions: uptake at 2.5 minutes, about 4 μM 3H-tetracycline; read-out: IC50
T1 construct: Everted vesicles, to which the TET proteins responsible for tetracycline efflux are attached; endogenous in cells; host or cells: E. coli strain D1-209 (everted membrane vesicles)

[3] = test system: S. aureus 4250 (Tet K); experiment: MIC/MLC chart, analog with and without doxycycline; assay type: cell-based
[4] = test system: E. coli ML308; experiment: MIC of tetracycline susceptible strains, C5 esters; assay type: cell-based; conditions: E. coli ML308, alone
[5] = test system: S. aureus 450; experiment: MIC of tetracycline susceptible strains, C5 esters; assay type: cell-based; conditions: S. aureus 450, alone
[6] = test system: E. faecalis ATCC 9790; experiment: MIC of tetracycline susceptible strains, C5 esters; assay type: cell-based; conditions: E. faecalis ATCC 9790, alone
[7] = test system: E. coli D1-299 (Tet A); assay type: cell-based;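 further: E. coli at roughly 5×10^5 cells/ml in L broth, analog and doxycycline alone or mixed in two-fold dilutions from 50 to under 1 µg/ml, 18 h at 37 °C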
[8] = test system: E. faecalis 211 (Tet M); experiment: MIC/MLC chart, analog with and without doxycycline; assay type: cell-based;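 further: broth checkerboard of two-fold drug dilutions, alone and mixed with doxycycline, bacteria near 5×10^5 cells/ml, 18 h incubation at 37 °C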

T1 sequence (P02980 whole entry): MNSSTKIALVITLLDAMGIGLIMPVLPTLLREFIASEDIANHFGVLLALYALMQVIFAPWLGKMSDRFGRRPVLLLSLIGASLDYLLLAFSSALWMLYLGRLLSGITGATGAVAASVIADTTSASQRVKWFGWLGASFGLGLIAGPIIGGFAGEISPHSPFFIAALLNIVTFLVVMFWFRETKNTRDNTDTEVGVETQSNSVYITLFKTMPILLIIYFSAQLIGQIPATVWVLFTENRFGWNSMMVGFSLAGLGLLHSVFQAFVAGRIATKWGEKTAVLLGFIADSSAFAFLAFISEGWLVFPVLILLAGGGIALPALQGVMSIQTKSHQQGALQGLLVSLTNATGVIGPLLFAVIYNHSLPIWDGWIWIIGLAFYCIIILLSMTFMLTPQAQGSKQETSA

13-propylthio-5-proprionate-6-deoxy-tetracycline [Cmpd 8]
+: growth / no growth (MIC) / killing (MLC) symbol ([1]; analog .195 + doxy 1.56 μg/ml) | growth / no growth (MIC) / killing (MLC) symbol ([1]; analog .195 + doxy 3.12 μg/ml) | growth / no growth (MIC) / killing (MLC) symbol ([1]; analog alone .195 μg/ml) | growth / no growth (MIC) / killing (MLC) symbol ([1]; analog alone .39 μg/ml) | growth / no growth (MIC) / killing (MLC) symbol ([1]; analog alone .78 μg/ml) | growth / no growth (MIC) / killing (MLC) symbol ([3]; analog .195 + doxy 1.56 μg/ml) | growth / no growth (MIC) / killing (MLC) symbol ([3]; analog alone .195 μg/ml) | growth / no growth (MIC) / killing (MLC) symbol ([7]; analog 1.56 + doxy 1.55 μg/ml) | growth / no growth (MIC) / killing (MLC) symbol ([7]; analog 1.56 + doxy 3.1 μg/ml) | growth / no growth (MIC) / killing (MLC) symbol ([7]; analog 1.56 + doxy 6.2 μg/ml) | growth / no growth (MIC) / killing (MLC) symbol ([7]; analog 3.12 + doxy 1.53 μg/ml) | growth / no growth (MIC) / killing (MLC) symbol ([7]; analog 3.12 + doxy 3.05 μg/ml) | growth / no growth (MIC) / killing (MLC) symbol ([7]; analog 3.12 + doxy 6.1 μg/ml) | growth / no growth (MIC) / killing (MLC) symbol ([7]; analog 6.25 + doxy 5.9 μg/ml) | growth / no growth (MIC) / killing (MLC) symbol ([7]; analog 6.25 + doxy 3.0. μg/ml) | growth / no growth (MIC) / killing (MLC) symbol ([7]; analog 6.25 + doxy […]) | growth / no growth (MIC) / killing (MLC) symbol ([7]; analog 12.5 + doxy 2.8 μg/ml) | growth / no growth (MIC) / killing (MLC) symbol ([7]; analog 12.5 + doxy 5.5 μg/ml) | growth / no growth (MIC) / killing (MLC) symbol ([7]; analog 12.5 + doxy […]) | growth / no growth (MIC) / killing (MLC) symbol ([7]; analog 25 + doxy 2.4 μg/ml) | growth / no growth (MIC) / killing (MLC) symbol ([7]; analog 25 + doxy 4.7 μg/ml) | growth / no growth (MIC) / killing (MLC) symbol ([7]; analog 25 + doxy […]) | growth / no growth (MIC) / killing (MLC) symbol ([7]; analog 50 + doxy 1.56 μg/ml) | growth / no growth (MIC) / killing (MLC) symbol ([7]; analog 50 + doxy 3.12 μg/ml) | growth / no growth (MIC) / killing (MLC) symbol ([7]; analog 50 + doxy .78 μg/ml) | growth / no growth (MIC) / killing (MLC) symbol ([7]; analog .195 + doxy 1.56 μg/ml) | growth / no growth (MIC) / killing (MLC) symbol ([7]; analog .195 + doxy 3.12 μg/ml) | growth / no growth (MIC) / killing (MLC) symbol ([7]; analog .195 + doxy 6.25 μg/ml) | growth / no growth (MIC) / killing (MLC) symbol ([7]; analog .195 + doxy 12.5 μg/ml) | growth / no growth (MIC) / killing (MLC) symbol ([7]; analog .39 + doxy 1.56 μg/ml) | growth / no growth (MIC) / killing (MLC) symbol ([7]; analog .39 + doxy 3.12 μg/ml) | growth / no growth (MIC) / killing (MLC) symbol ([7]; analog .39 + doxy 6.25 μg/ml) | growth / no growth (MIC) / killing (MLC) symbol ([7]; analog .39 + doxy 12.5 μg/ml) | growth / no growth (MIC) / killing (MLC) symbol ([7]; analog .78 + doxy 1.56 μg/ml) | growth / no growth (MIC) / killing (MLC) symbol ([7]; analog .78 + doxy 3.12 μg/ml) | growth / no growth (MIC) / killing (MLC) symbol ([7]; analog .78 + doxy 6.23 μg/ml) | growth / no growth (MIC) / killing (MLC) symbol ([7]; analog .78 + doxy 12.4 μg/ml) | growth / no growth (MIC) / killing (MLC) symbol ([7]; analog alone 1.56 μg/ml) | growth / no growth (MIC) / killing (MLC) symbol ([7]; analog alone 3.12 μg/ml) | growth / no growth (MIC) / killing (MLC) symbol ([7]; analog alone 6.25 μg/ml) | growth / no growth (MIC) / killing (MLC) symbol ([7]; analog alone 12.5 μg/ml) | growth / no growth (MIC) / killing (MLC) symbol ([7]; analog alone 25.0 μg/ml) | growth / no growth (MIC) / killing (MLC) symbol ([7]; analog alone 50.00 μg/ml) | growth / no growth (MIC) / killing (MLC) symbol ([7]; analog alone .195 μg/ml) | growth / no growth (MIC) / killing (MLC) symbol ([7]; analog alone .39 μg/ml) | growth / no growth (MIC) / killing (MLC) symbol ([7]; analog alone .78 μg/ml) | growth / no growth (MIC) / killing (MLC) symbol ([8]; analog 1.56 + doxy 1.55 μg/ml) | growth / no growth (MIC) / killing (MLC) symbol ([8]; analog 1.56 + doxy 3.1 μg/ml) | growth / no growth (MIC) / killing (MLC) symbol ([8]; analog 1.56 + doxy 6.2 μg/ml) | growth / no growth (MIC) / killing (MLC) symbol ([8]; analog .195 + doxy 1.56 μg/ml) | growth / no growth (MIC) / killing (MLC) symbol ([8]; analog .195 + doxy 3.12 μg/ml) | growth / no growth (MIC) / killing (MLC) symbol ([8]; analog .195 + doxy 6.25 μg/ml) | growth / no growth (MIC) / killing (MLC) symbol ([8]; analog .195 + doxy 12.5 μg/ml) | growth / no growth (MIC) / killing (MLC) symbol ([8]; analog .39 + doxy 1.56 μg/ml) | growth / no growth (MIC) / killing (MLC) symbol ([8]; analog .39 + doxy 3.12 μg/ml) | growth / no growth (MIC) / killing (MLC) symbol ([8]; analog .39 + doxy 6.25 μg/ml) | growth / no growth (MIC) / killing (MLC) symbol ([8]; analog .39 + doxy 12.5 μg/ml) | growth / no growth (MIC) / killing (MLC) symbol ([8]; analog .78 + doxy 1.56 μg/ml) | growth / no growth (MIC) / killing (MLC) symbol ([8]; analog .78 + doxy 3.12 μg/ml) | growth / no growth (MIC) / killing (MLC) symbol ([8]; analog .78 + doxy 6.23 μg/ml) | growth / no growth (MIC) / killing (MLC) symbol ([8]; analog alone 1.56 μg/ml) | growth / no growth (MIC) / killing (MLC) symbol ([8]; analog alone .195 μg/ml) | growth / no growth (MIC) / killing (MLC) symbol ([8]; analog alone .39 μg/ml) | growth / no growth (MIC) / killing (MLC) symbol ([8]; analog alone .78 μg/ml)
.3 µg/mL: MIC [5]
2.5 µg/mL: MIC [6]
20 µg/mL: MIC [4]
◯: growth / no growth (MIC) / killing (MLC) symbol ([1]; analog .39 + doxy 1.56 μg/ml) | growth / no growth (MIC) / killing (MLC) symbol ([1]; analog .39 + doxy 3.12 μg/ml) | growth / no growth (MIC) / killing (MLC) symbol ([3]; analog .195 + doxy 3.12 μg/ml) | growth / no growth (MIC) / killing (MLC) symbol ([7]; analog 1.56 + doxy 12.3 μg/ml) | growth / no growth (MIC) / killing (MLC) symbol ([8]; analog 3.12 + doxy 1.53 μg/ml) | growth / no growth (MIC) / killing (MLC) symbol ([8]; analog 3.12 + doxy 3.05 μg/ml) | growth / no growth (MIC) / killing (MLC) symbol ([8]; analog alone 3.12 μg/ml)
5.85: pIC50 [2]
